Measured values taken from patent US20130344065A1, “Combination Treatment with VEGF-C Antagonists” (Vegenics Pty Ltd, priority 2010, published 2013).

Key:
[1] = test system: KP4 human pancreatic tumors; assay: KP4 pancreatic xenograft (Example 8); settings: for % T/C: after 30 days
Experimental: VGX-100 was administered at 20 or 40 mg/kg for single therapy and at 40/mg/kg for combination therapy.
To initiate the study, 5×10^6 of KP4 cells suspended in 100 μl of a mixture of medium/Matrigel (1:1) were subcutaneously implanted to the nude mice in the right flank region. Cancer cells were implanted into 90 mice. Animals were monitored for tumor growth daily after cell implantation. When tumor volumes reached 80-100 mm^3, mice were randomized into 5 groups of 10 mice each using only mice having tumor volumes closest to the mean value. Mice with tumor volumes too big or too small were excluded from the study. Tumor volumes were measured using the formula V=L×W×H×π/6, where L and W represented the longer and shorter diameters of the tumor and H represented the height of the tumor. The treatment with drugs was initiated on the day after randomization. […] All treatments were administered intraperitoneally twice weekly for 30 days.
Throughout the entire study, tumor volumes were measured twice weekly and body weights once weekly. […] Unscheduled sacrifices were performed if tumor volumes reached>2,000 mm^3, animals lost>25% of their original body weights, tumor ulceration appeared, or mice became moribund. At the end of the experiment, tumors were removed, embedded in Optimal Cutting Temperature (OCT), and stored at −80° C. for IHC analysis. Gross examination was conducted on liver, lung, spleen, kidneys, testes, and prostate. If no abnormal observation was detected on these organs, the tissues were discarded.
Tumor size was measured 2-3 times weekly with calipers. Size of tumors relative to controls is calculated after 30 days of treatment.

VEGF-C = target: T1, VEGF-C (Homo sapiens, UniProt P49767); assay: Direct binding ELISA / BiaCore affinity of VGX-100; settings: capture antigens VEGF-C, VEGF-D or VEGF
T1 construct: purchased R&D Systems
T1 sequence (P49767 112-227): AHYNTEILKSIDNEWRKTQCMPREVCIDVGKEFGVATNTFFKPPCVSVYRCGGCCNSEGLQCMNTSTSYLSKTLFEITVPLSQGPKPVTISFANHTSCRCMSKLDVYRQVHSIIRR
Experimental: VEGF-C antibody VGX-100 was assessed by a direct binding ELISA using VEGF-C, VEGF-D or VEGF (R&D Systems) as capture antigens and bound VGX-100 detected with rabbit anti-human IgG-HRP (Abcam).

[2] = VGX-100 40 mg/kg and/or Avastin 10 mg/kg

VGX-100: VEGF-C antibody; heavy chain SEQ ID NO: 3, light chain SEQ ID NO: 4
Mean Tumor Vol. at D30 (mm3) ([1]; VGX-100 20 mg/kg): 1492.77 mm3
Mean Tumor Vol. at D30 (mm3) [1, 2]: 693.24 mm3
Mean Tumor Vol. at D30 (mm3) ([1]; VGX-100 60 mg/kg): 958.93 mm3
% T/C ([1]; VGX-100 20 mg/kg): 76.0%
% T/C [1, 2]: 35.3%
% T/C ([1]; VGX-100 60 mg/kg): 48.8%
Binding selectivity in direct binding ELISA (VEGF-C): selectively recognized and bound to VEGF-C
